# Structures can show the parent of a compound that is named as a salt.
row,SMILES,melting point
1,Clc1cccc(N2CC3CCC(C2)N3CCc2ccc3ccncc3c2)n1,141 to 142 °C
2,FC(F)(F)c1cccc(N2C3CCC2CN(CCc2ccc4ccncc4c2)C3)c1 (as salt: hydrochloride) (hydrate or solvate),151 to 153 °C
3,FC(F)(F)c1cccc(N2CC3CCC(C2)N3CCc2ccc3ccncc3c2)n1 (as salt: hydrochloride) (hydrate or solvate),258 to 260 °C
4,FC(F)(F)c1cccc(N2C3CCC2CN(CCc2ccc4ccncc4c2)C3)n1 (as salt: hydrochloride) (hydrate or solvate),158 to 160 °C
5,FC(F)(F)c1cccc(N2CC3CCC(C2)N3CCc2ccc3ccncc3c2)c1 (as salt: oxalate),97 to 99 °C

# More lines, now with the values ahead:
row,melting point,SMILES
1,108 to 110 °C,Clc1cccc(N2CCN(CCc3ccc4ccncc4c3)CC2)n1 (as salt: hydrochloride) (hydrate or solvate) [Example 3]
2,228 to 230 °C,FC(F)(F)c1cccc(N2CCN(CCc3ccc4cccnc4c3)CC2)n1 (as salt: hydrochloride) [Example 11]
3,108 to 110 °C,FC(F)(F)c1ccc(N2CCN(CCc3ccc4cccnc4c3)CC2)nc1 (as salt: hydrochloride) [Example 12]
4,163 to 164 °C,FC(F)(F)c1cccnc1N1CCN(CCc2ccc3cccnc3c2)CC1 (as salt: hydrochloride) [Example 13]
5,135 to 137 °C,FC(F)(F)c1cccc(N2CCCN(CCc3ccc4ccncc4c3)CC2)c1 (as salt: oxalate) [Example 4]
6,170 to 172 °C,Clc1cccc(N2CCN(CCc3ccc4cccnc4c3)CC2)n1 (as salt: oxalate) [Example 10]
